Measured values from patent US10265321B2, “Uses of salt-inducible kinase (SIK) inhibitors” (Dana-Farber Cancer Institute, Inc., priority 2014, dated 2019).

Assays:
[1] = test system: human MΦs or DCs; test: Cytokine production by human macrophages and dendritic cells from PBMCs (ELISA); format: cell-based; details: 0.5 μM, 24 hr, zymosan 18 hr
Protocol: Heparinized blood from healthy donors was obtained from Research Blood Components. Peripheral blood mononuclear cells (PBMCs) were obtained by density centrifugation of blood diluted 50% (vol/vol) with PBS over Ficoll-Paque (Pharmacia Biotech). PBMCs were further purified by plastic adherence for 1 hr and washed 5× with PBS. Monocytes within the PBMC pool were differentiated towards DCs in X-VIVO media (Lonza) supplemented with IL-4 (50 ng/mL, R&D Systems) and GM-CSF (50 ng/mL, R&D Systems) or macrophages in X-VIVO media supplemented with GM-CSF (5 ng/mL) and IFN-γ (5 ng/mL; PeproTech) for 7 days as described previously (Smeekens S P, et al. (2013) Functional genomics identifies type I interferon pathway as central for host defense against Candida albicans. Nature communications 4:1342). After third day, half of the culture medium was replaced by fresh DC/macrophages differentiation medium.
After stimulation of cells with microbial ligands, the culture medium was removed, clarified by centrifugation for 10 min at 14,000×g, and the concentration of TNF-α, IL-6, IL-10, IL-12p40, IL-1β and RANTES were measured using FlexSet Cytokine Bead Array (BD Biosciences) according to the manufacturer's instructions. Where indicated, ELISAs were used to detect IL-10 and IL-12p70 (BD Biosciences) according to the manufacturer's instructions. […]

[2] = test system: CD11c+ CX3CR1hi myeloid cells and CD11c+ CX3CR1− DCs from the small intestine; test: Cytokine production by lamina propria gut myeloid cells; format: cell-based, mouse; details: 0.3 μM, 30 min pre-treatment
Protocol: (§1) Bone marrow-derived DCs were differentiated from C57BL/6 bone marrow in the presence of GM-CSF-conditioned media. CD11c^+ CX3CR1^hi myeloid cells and CD11c^+ CX3CR1^− DCs were isolated from the small intestine lamina propria of Cx3cr1^eGFP/+ mice (12). Detection of cell-surface Thy1.1 expression on BMDCs from 10BiT reporter mice was conducted as described previously (24). Cell viability was estimated by change in total cellular ATP levels using CellTiterGlo assays (Promega). Preparation of recombinant SIK proteins and IC50 measurements were conducted as described previously (21). Total RNA was extracted using a NucleoSpin 96 RNA isolation kit (Macherey-Nagel) followed by cDNA synthesis and multiplex RT-PCR using a microfluidic dynamic array (Fluidigm). The concentrations of TNF-α, IL-6, IL-10, IL-12p40, IL-1β and RANTES in culture supernatants were detected using a FlexSet Cytometric bead array (BD Biosciences). Alternatively, IL-10 secretion was quantified using ELISA (BD Biosciences) or AlphaLISA (PerkinElmer) assays. NO production was estimated based on nitrate content in culture medium using the Greiss reagent.
After stimulation of cells with microbial ligands, the culture medium was removed, clarified by centrifugation for 10 min at 14,000×g, and the concentration of TNF-α, IL-6, IL-10, IL-12p40, IL-1β and RANTES were measured using FlexSet Cytokine Bead Array (BD Biosciences) according to the manufacturer's instructions. Where indicated, ELISAs were used to detect IL-10 and IL-12p70 (BD Biosciences) according to the manufacturer's instructions. NO production was estimated based on nitrate content in culture medium using the Greiss reagent as described previously (Miletic A V, et al. (2007) Vav proteins control MyD88-dependent oxidative burst. Blood 109(8):3360-3368).
CX3CR1GFP/+ mice were euthanized and intestines cut into 3-4 pieces before inversion onto polyethylene tubes (Becton Dickinson). Intestinal fragments were washed with calcium- and magnesium-free PBS (Lonza), and mucus was removed with 1 mM DTT. […]

[3] = molecular target: T1, SIK1 (Homo sapiens, UniProt P57059); test: Protein kinase assay ([γ-32P] ATP, phosphocellulose paper) against SIK1; format: biochemical; details: read-out: Enzyme Inhibition IC50 SIK1
T1 construct: made in house
T1 sequence (P57059 whole entry): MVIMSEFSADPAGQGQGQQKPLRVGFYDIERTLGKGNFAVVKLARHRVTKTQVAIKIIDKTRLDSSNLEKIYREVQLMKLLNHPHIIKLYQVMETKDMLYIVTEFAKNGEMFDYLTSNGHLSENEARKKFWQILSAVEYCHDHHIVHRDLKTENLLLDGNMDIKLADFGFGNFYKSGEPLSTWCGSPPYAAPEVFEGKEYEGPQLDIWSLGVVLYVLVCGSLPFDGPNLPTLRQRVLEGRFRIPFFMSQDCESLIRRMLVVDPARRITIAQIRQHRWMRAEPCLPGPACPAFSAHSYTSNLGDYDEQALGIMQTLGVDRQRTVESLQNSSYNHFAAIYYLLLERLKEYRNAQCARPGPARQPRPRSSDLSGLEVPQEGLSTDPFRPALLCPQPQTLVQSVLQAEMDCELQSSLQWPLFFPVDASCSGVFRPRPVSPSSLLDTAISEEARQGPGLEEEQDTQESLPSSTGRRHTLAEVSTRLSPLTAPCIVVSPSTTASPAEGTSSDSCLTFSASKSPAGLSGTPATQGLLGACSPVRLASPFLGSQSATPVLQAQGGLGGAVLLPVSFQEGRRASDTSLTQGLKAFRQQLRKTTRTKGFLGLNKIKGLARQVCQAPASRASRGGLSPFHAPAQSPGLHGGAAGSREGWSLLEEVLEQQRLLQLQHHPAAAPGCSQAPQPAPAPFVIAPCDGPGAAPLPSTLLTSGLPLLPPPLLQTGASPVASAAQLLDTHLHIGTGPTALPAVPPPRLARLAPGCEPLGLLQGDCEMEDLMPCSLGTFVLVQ
Protocol: as §1, with “Total RNA was extracted using a NucleoSpin 96 RNA isolation kit (Macherey-Nagel) followed by cDNA synthesis and multiplex RT-PCR using a microfluidic dynamic array (Fluidigm).” left out, “NO production was estimated based on nitrate content in culture medium using the Greiss reagent.” left out
In another set of experiments, the activities of the SIK inhibitors described herein against SIK were determined according to the methods reported in Hastie et al., Nature Protocols, 2006, 1, 968-971. […]
The specific activity of the [γ-^32P] […] To measure the concentration of ATP, a sample of such a stock solution was diluted to 20 μM, and the absorbance of the diluted sample was measured at 259 nm. The absorbance of a 20-μM stock solution of ATP at 259 nm was about 0.31. […] ATP to produce a radioactivity of 1×10^5 to 1×10^6 c.p.m. per nmol. […]

Row | IC50 [3] | SMILES | IL-10 production by human MΦs or DCs [1] | IL-12p70 secretion by human MΦs or DCs [1] | IL-10 production by CD11c+ CX3CR1hi cells ([2]; LPS or zymosan 18 hr) | secretion of TNF-α by gut myeloid cell subsets ([2]; both subsets) | production of IL-6 or RANTES by gut myeloid cell subsets ([2]; either subset)
1 | – | COc1ccc(N(C(=O)Nc2c(C)cccc2C)c2cc(Nc3ccc(N4CCN(C)CC4)cc3)ncn2)c(OC)c1 [HG-9-91-01] | enhanced IL-10 production | dramatically reducing IL-12p70 secretion | enhanced IL-10 production | reduced secretion of TNF-α | not affected
2 | 36.2 nM | CCN1CCN(c2ccc(Nc3cc(-n4ccnc4Nc4c(C)cccc4C)ncn3)cc2)CC1 [II-1, 6-(2-((2,6-dimethylphenyl)amino)-1H-imidazol-1-yl)-N-(4-(4-ethylpiperazin-1-yl)phenyl)pyrimidin-4-amine] | – | – | – | – | –
